Measurements reported in patent US20230263826A1, “Compositions and Methods for Treatment and Prevention of Type 1 Diabetes” (The UAB Research Foundation, priority 2021, published 2023).

Experiments:
Format in all cases: in vivo, mouse
female NOD mice [1] = test: β cell mass and circulating insulin at sacrifice in FKGK18-treated NOD mice; details: 8-week regimen group
Method: (§1) FIGS. 1A-1M show the effects of temporal FKGK18 regimen on T1D incidence and islet phenotype, wherein female NOD mice were administered FKGK18 (20 mg/kg, 3 × weekly) or vehicle (PBS-T) starting at 4 or 8 weeks of age. FIGS. 1A and 1B show diabetes incidence; blood glucose was monitored weekly in the 4-week (FIG. 1A; n = 17 and 15 for PBS-T and FKGK18 groups, respectively) and 8-week (FIG. 1B; n = 15 each in the PBS-T and FKGK18 groups) regimen groups for up to 30 weeks. Two consecutive readings of ≥ 275 mg/dL were recorded as onset of T1D (^†P < 0.05). FIGS. 1C-1F show glucose tolerance test (GTT) results, wherein overnight fasted mice were administered glucose (2 g/kg, i.p.), glucose levels in blood from tail vein were monitored over a 2-hour period, and AUC were generated. […] FIGS. 1H and 1I show β Cell mass (PBS-T, n = 15; FKGK18, n = 14) (FIG. 1H) and circulating insulin (n = 15 in each group) (FIG. 1I) were determined at sacrifice (PBS-T, 14-30 weeks of age; FKGK18, 16-36 weeks of age). FIGS. 1J and 1K show islet infiltration; paraffin sections (10 µm) of pancreas were prepared and stained with H&E. Percent infiltration for each islet was calculated as the value of noninfiltrated area subtracted from total islet area (% infiltrate = 100 × [(total area - noninfiltrated area)/(total area)]) using ImageJ software. […]

female NOD mice [2] = test: Islet infiltration and islet immune cell phenotype (H&E, CD4+ T cell and B220 staining of pancreas sections); details: 8-week regimen group
Method: as §1, with “generated. FIGS. 1C and 1D show four-week group at 14 weeks of age; n = 5 each in the PBS-T and FKGK18 groups. FIGS. 1E and 1F show eight-week group at 25 weeks of age; n = 7 and 5 for PBS-T and FKGK18 groups, respectively. FIGS. 1G-1I show phenotype parameters in the 8-week regimen group.” for “generated.”, “software. (PBS-T, n = 14 and 166 islets; FKGK18, n = 15 and 260 islets).” for “software.”
Blood glucose levels were measured weekly via tail vein blood draw (2 µL) with Breeze 2 Blood Glucose Monitoring System (Bayer HealthCare). Diabetes incidence was based on 2 consecutive blood glucose readings ≥ 275 mg/dL, at which time the mouse was euthanized. […] Pancreas section and islet images were captured on an Olympus IX81 microscope using cellSens Dimension software and analyzed using ImageJ software (NIH).

female NOD mice [3] = test: T1D incidence in female NOD mice administered FKGK18 (weekly blood glucose monitoring)
Method: FIGS. 1A-1M show the effects of temporal FKGK18 regimen on T1D incidence and islet phenotype, wherein female NOD mice were administered FKGK18 (20 mg/kg, 3 × weekly) or vehicle (PBS-T) starting at 4 or 8 weeks of age. FIGS. 1A and 1B show diabetes incidence; blood glucose was monitored weekly in the 4-week (FIG. 1A; n = 17 and 15 for PBS-T and FKGK18 groups, respectively) and 8-week (FIG. 1B; n = 15 each in the PBS-T and FKGK18 groups) regimen groups for up to 30 weeks. Two consecutive readings of ≥ 275 mg/dL were recorded as onset of T1D (^†P < 0.05). FIGS. 1C-1F show glucose tolerance test (GTT) results, wherein overnight fasted mice were administered glucose (2 g/kg, i.p.), glucose levels in blood from tail vein were monitored over a 2-hour period, and AUC were generated. FIGS. 1C and 1D show four-week group at 14 weeks of age; n = 5 each in the PBS-T and FKGK18 groups. FIGS. 1E and 1F show eight-week group at 25 weeks of age; n = 7 and 5 for PBS-T and FKGK18 groups, respectively. FIGS. 1G-1I show phenotype parameters in the 8-week regimen group. […] FIGS. 1H and 1I show β Cell mass (PBS-T, n = 15; FKGK18, n = 14) (FIG. 1H) and circulating insulin (n = 15 in each group) (FIG. 1I) were determined at sacrifice (PBS-T, 14-30 weeks of age; FKGK18, 16-36 weeks of age). FIGS. 1J and 1K show islet infiltration; paraffin sections (10 µm) of pancreas were prepared and stained with H&E. Percent infiltration for each islet was calculated as the value of noninfiltrated area subtracted from total islet area (% infiltrate = 100 × [(total area - noninfiltrated area)/(total area)]) using ImageJ software. (PBS-T, n = 14 and 166 islets; FKGK18, n = 15 and 260 islets). […] FIGS. 1L and 1M show islet immune cell phenotype; paraffin sections (10 µm) of pancreas were prepared and stained for CD4+-T cells or B (B220) cells. Data presented are mean ± SEM of CD4+ T cells or B cells per islet. […] Statistical analyses: (FIGS. 1A and 1B) Mantel-Cox test; (FIGS. 1D-1M) Student’s t test.
FIGS. 2A-2E show the effects of FKGK18-withdrawal regimen on T1D incidence and glucose tolerance, wherein female NOD mice were administered FKGK18 (20 mg/kg, 3 × weekly, n = 18) or vehicle (PBS-T, n = 17) starting at 10 days of age and until 14 weeks of age. […] FIGS. 2B and 2D show glucose tolerance test (GTT) results, assessed at 14 (FIG. 2B) and 25 (FIG. 2D) weeks of age (data are presented as mean ± SEM), as described in FIG. 1. FIGS. 2C and 2E show corresponding AUC. […]
Blood glucose levels were measured weekly via tail vein blood draw (2 µL) with Breeze 2 Blood Glucose Monitoring System (Bayer HealthCare). Diabetes incidence was based on 2 consecutive blood glucose readings ≥ 275 mg/dL, at which time the mouse was euthanized. […]

SMILES: O=C(CCCCc1ccc2ccccc2c1)C(F)(F)F [FKGK18]
- β cell mass vs PBS-T (female NOD mice [1]): similar
- circulating insulin vs PBS-T (female NOD mice [1]; nonfasting): higher
- pancreatic islet abundance of B cells relative to PBS-T (female NOD mice [2]): significantly reduced
- pancreatic islet abundance of CD4+ T cells relative to PBS-T (female NOD mice [2]): significantly reduced
- islet infiltration vs PBS-T (female NOD mice [2]; H&E pancreas sections): reduced
- mice that remained diabetes free (female NOD mice [3]; FKGK18 20 mg/kg i.p. 3 times/week starting at 4 weeks of age, monitored up to 30 weeks, PBS-T 80% T1D incidence): 40%
- T1D incidence vs corresponding PBS-T group (female NOD mice [3]; FKGK18 20 mg/kg i.p. 3 times/week starting at 8 weeks of age, modest delay): not significantly different
- NOD that developed T1D (female NOD mice [3]; FKGK18 20 mg/kg i.p. 3 times/week starting at 10 days of age, by 25-30 weeks of age, vehicle 80%-90% diabetic, data not shown): 10%-15%
- decreased T1D incidence after FKGK18 withdrawal (female NOD mice [3]; FKGK18 from 10 days until 14 weeks of age, then withdrawn, monitored up to 30 weeks): not evident
